From patent US20260144769A1, “4-PHENYLBUTYRATE RESTORED GABA UPTAKE AND REDUCED SEIZURES IN SLC6A1 VARIANT-MEDIATED DISORDERS” (Vanderbilt University, priority 2022, published 2026)

Legend:
Assay in all cases: 3H GABA uptake, HEK293T, mutant cDNA alone ("homozygous")
Assay type in all cases: cell-based
Details in all cases: PBA 2 mM, 24 hrs
GAT-1 A288V = target: T1, GAT-1 A288V (Rattus norvegicus, UniProt P23978, A288V)
T1 construct: The coding region of rGAT-1 was inserted into pEYFP-C1 (Clontech, Palo Alto, CA); expressed in transfected cells; host or cells: HEK293T cells (A4); astrocytes from corrected human iPSCs (A24)
Method: (§1) GABA uptake activity was measured by the high-throughput 3H radio-labeling GABA uptake on a liquid scintillator with QuantaSmart. […] HEK293T cells were transfected with the wildtype or the mutant GAT-1^YFP cDNAs alone for 48 hr. […] HEK293T cells were transfected with the wildtype GAT-1^YFP alone or in mixture of the wildtype or the mutant cDNAs for 48 hr. In the mixed condition, the ratio of the wildtype GAT-1 with pcDNA or the mutant cDNAs are 1:1 with the total cDNA amount of 0.5 μg. […] Both wt and the mutant were normalized to its own DMSO treated conditions. 966 stands for the wildtype treated with CI-966 (50 μM) while 711 stands for NNC-711 (35 μM). (N=4-7 different transfections. In FIG. 4A and FIG. 4B, *P<0.05, **P<0.01, ***p<0.001 vs. wt 0. In FIG. C and FIG. 4D, *P<0.05, **P<0.01, ***p<0.001 vs. its own DMSO treated. In FIG. 4C, ns stands for no significance. One-way analysis of variance (ANOVA) and Newman-Keuls test. Values were expressed as mean±S.E.M.
(§2) The plasmid cDNA encoding enhanced yellow fluorescent protein (EYFP)-tagged rat GAT-1 has been previously described. The coding region of rGAT-1 was inserted into pEYFP-C1 (Clontech, Palo Alto, CA). QuikChange Site-directed Mutagenesis kit was utilized to introduce the GAT-1 variants into a wildtype GAT-1 plasmid. The product was then amplified via polymerase chain reaction, transformed using DH5a competent cells, and plated. A clone was chosen and grown overnight. All the GAT-1 variants were confirmed by DNA sequencing. Both the wildtype and the variant cDNAs were prepared with Qiagen Maxiprep kit.
(§3) Human embryonic kidney cells were cultured as monolayers in 100 mm^2 dishes. Cells were cultured in Dulbecco's Modified Eagle's Medium supplemented with 10% FBS and 1% penicillin/streptomycin in 37° C. in 5% CO2/95% air. Cells were maintained in culture medium until appropriate confluency for experimentation.
(§4) Briefly, cells were cultured in […] dishes for 3 days before the GABA uptake experiment in DMEM with 10% fetal bovine serum and 1% penicillin/streptomycin. The cells were then transfected with equal amounts of the wildtype or the mutant GAT-1 cDNAs (1 μg) for each condition at 24 hrs or 48 hrs after plating. GABA uptake assay was carried out 48 hrs after transfection. The cells were incubated with preincubation solution for 15 min and then incubated with preincubation solution containing 1 μci/mL 3H GABA and 10 μM unlabeled GABA for 30 min at room temperature. After washing, the cells were lysed with 0.25 N NaOH for 1 hr. Glacial acetic acid was added, and lysates were then determined on a liquid scintillator with QuantaSmart. The flux of GABA (pmol/μg/min) was averaged with at least triplets for each condition at each transfection. The average counting was taken as n=1. The untransfected condition was taken as a baseline that was subtracted from both the wildtype and the mutant conditions. The pmol/μg/min in the mutant was then normalized to the wildtype from each experiment, which was arbitrarily taken as 100%. The protocols for GABA reuptake assay in cultured mouse astrocytes, neuron or iPSC derived cells were modified from the GABA uptake protocol on HEK 293T cells. GAT-1 inhibitors CL-966 and NNC-711 were applied each time to make sure the radioactive counts were specific.
(§5) The working solution was stored at 4° C.

GAT-1 D410E = target: T2, GAT-1 D410E (Rattus norvegicus, UniProt P23978, D410E)
T2 construct: The coding region of rGAT-1 was inserted into pEYFP-C1 (Clontech, Palo Alto, CA); expressed in transfected cells; host or cells: HEK293T cells (A7); astrocytes from corrected human iPSCs (A27)
Method: as §1, §2, §3, §4, §5

GAT-1 G326R = target: T3, GAT-1 G326R (Rattus norvegicus, UniProt P23978, G362R)
T3 construct: The coding region of rGAT-1 was inserted into pEYFP-C1 (Clontech, Palo Alto, CA); expressed in transfected cells; host or cells: HEK293T cells
Method: as §1, §2, §3, §4, §5

GAT-1 S295L = target: T4, GAT-1 S295L (Rattus norvegicus, UniProt P23978, S295L)
T4 construct: The coding region of rGAT-1 was inserted into pEYFP-C1 (Clontech, Palo Alto, CA); expressed in transfected cells; host or cells: HEK293T cells (A5); astrocytes from corrected human iPSCs (A25)
Method: as §1, §2, §3, §4, §5

GAT-1 V125M = target: T5, GAT-1 V125M (Rattus norvegicus, UniProt P23978, V125M)
T5 construct: The coding region of rGAT-1 was inserted into pEYFP-C1 (Clontech, Palo Alto, CA); expressed in transfected cells; host or cells: HEK293T cells (A3); astrocytes from corrected human iPSCs (A23)
Method: as §1, §2, §3, §4, §5

GAT-1 W495X = target: T6, GAT-1 W495X (Rattus norvegicus, UniProt P23978)
T6 construct: expressed in transfected cells; host or cells: HEK293T cells
Method: as §1, §2, §3, §4, §5

Structure (SMILES): O=C(O)CCCc1ccccc1 [PBA, 4-phenylbutyric acid]
- GABA uptake normalized to its own DMSO treated condition (GAT-1 A288V): 1.22±0.063
- GABA uptake normalized to its own DMSO treated condition (GAT-1 D410E): 1.236±0.074
- GABA uptake normalized to its own DMSO treated condition (GAT-1 G326R): 1.185±0.065
- GABA uptake normalized to its own DMSO treated condition (GAT-1 S295L): 1.386±0.058
- GABA uptake normalized to its own DMSO treated condition (GAT-1 V125M): 1.378±0.056
- GABA uptake normalized to its own DMSO treated condition (GAT-1 W495X): 1.323±0.054
